Source: US11760756B2, “Crystalline form of a PD-1/PD-L1 inhibitor” (Incyte Corporation, priority 2020, dated 2023)

What was measured:
Type in all cases: physicochemical
[1] = Thermogravimetric Analysis (TGA), decomposition; conditions: ramp from 25° C. to 300° C. at 10° C./min
Source text: X-Ray Powder Diffraction (XRPD): Compound 1 crystalline forms were characterized by XRPD. The X-Ray Powder Diffraction (XRPD) was obtained from Bruker D8 Advance ECO X-ray Powder Diffractometer (XRPD) instrument. The general experimental procedures for XRPD were: (1) X-ray radiation from copper at 1.5418 Å and LYNXEYE™ detector; (2) X-ray power at 40 kV, 25 mA; and (3) the sample powder was dispersed on a zero-background sample holder. The general measurement conditions for XRPD were: Start Angle 3 degrees; Stop Angle 30 degrees; Sampling 0.015 degrees; and Scan speed 2 degree/min. Differential Scanning calorimetry (DSC): Compound 1 crystalline forms were characterized by DSC. The DSC was obtained from TA Instruments Differential Scanning calorimetry, Discovery DSC2500 with auto sampler. The DSC instrument conditions were as follows: 20-300° C. at 10° C./min; Tzero aluminum sample pan and lid; and nitrogen gas flow at 50 mL/min. Thermogravimetric Analysis (TGA): Compound 1 crystalline forms were also characterized by TGA. The TGA was obtained from TA Instruments Thermogravimetric Analyzer, Discovery TGA5500 with auto sampler. The general experimental conditions for TGA were: ramp from 25° C. to 300° C. at 10° C./min; nitrogen purge gas flow at 25 mL/min; platinum sample holder.

[2] = water dynamic vapor sorption (DVS) analysis; conditions: for water absorbed (DVS): 80% RH and 25° C., sample pre-dried under dried nitrogen for 1 hour (Form I at 50° C., Form IV at 25° C.)
Experimental: (§1) Form I is a non-solvate and non-hydrate crystalline form. On DSC, it first undergoes dehydration at below 125° C. followed by melting at around 148-160° C. […] On TGA, approximately 2.4% weight loss is observed at below 120° C., which is mainly due to dehydration. The compound decomposes above 160° C. after melting. Like the amorphous powder of Compound 1 drug substance, this non-solvate and non-hydrate crystalline form (Form I) is hygroscopic. […] It decomposes above 160° C. after melting. During water dynamic vapor sorption (DVS) analysis of this non-solvate and non-hydrate crystalline form (Form I), approximately 6.5% of water was absorbed at 80% RH and 25° C. for this crystalline form and the sample was pre-dried at 50° C. under dried nitrogen (N2) for 1 hour before the DVS analysis. For comparison, approximately 12% of water was absorbed at 80% RH and 25° C. for the amorphous powder.
(§2) Like the amorphous powder of Compound 1 drug substance, this meta-stable non-solvate crystalline form (Form IV) is hygroscopic. During water dynamic vapor sorption (DVS) analysis of this non-solvate crystalline form (Form IV), approximately 8.2% of water was absorbed at 80% RH and 25° C. for this crystalline form and the sample was pre-dried at 25° C. under dried nitrogen (N2) for 1 hour before the DVS analysis.

[3] = solid state form stability under water, humidity and drying conditions
Experimental: as §1, §2

Row | SMILES | decomposition temperature (TGA) [1] | hygroscopicity [2] | water absorbed (DVS) [2] | crystalline form change in the solid state after the DVS analysis [2] | further results
1 | Cc1c(Nc2nccc3cc(CN4CC[C@@H](O)C4)cnc23)cccc1-c1cccc(-c2nc3cc(CN4CC[C@@H](C(=O)O)C4)cc(C#N)c3o2)c1C [Form III, (R)-1-((7-cyano-2-(3′-(3-(((R)-3-hydroxypyrrolidin-1-yl)methyl)-1,7-naphthyridin-8-ylamino)-2,2′-dimethylbiphenyl-3-yl)benzo[d]oxazol-5-yl)methyl)pyrrolidine-3-carboxylic acid] | above 160 °C |  |  |  | 
2 | Cc1c(Nc2nccc3cc(CN4CC[C@@H](O)C4)cnc23)cccc1-c1cccc(-c2nc3cc(CN4CC[C@@H](C(=O)O)C4)cc(C#N)c3o2)c1C [Form II, (R)-1-((7-cyano-2-(3′-(3-(((R)-3-hydroxypyrrolidin-1-yl)methyl)-1,7-naphthyridin-8-ylamino)-2,2′-dimethylbiphenyl-3-yl)benzo[d]oxazol-5-yl)methyl)pyrrolidine-3-carboxylic acid] | above 170 °C |  |  |  | 
3 | Cc1c(Nc2nccc3cc(CN4CC[C@@H](O)C4)cnc23)cccc1-c1cccc(-c2nc3cc(CN4CC[C@@H](C(=O)O)C4)cc(C#N)c3o2)c1C [Form I, (R)-1-((7-cyano-2-(3′-(3-(((R)-3-hydroxypyrrolidin-1-yl)methyl)-1,7-naphthyridin-8-ylamino)-2,2′-dimethylbiphenyl-3-yl)benzo[d]oxazol-5-yl)methyl)pyrrolidine-3-carboxylic acid] | above 160 °C | hygroscopic | approximately 6.5% | No crystalline form change was observed | change in solid state form / hydrate formation ([3]; after stirring in water at ambient temperature for overnight): no change in solid state form; change in solid state form / hydrate formation ([3]; cycling from 5% RH to 95% RH and back to 5% RH at 25° C. and 5% RH interval): no change in solid state form; change in solid state form / hydrate formation ([3]; drying under dry nitrogen gas (N2) at 25° C. for one day): no change in solid state form; change in solid state form / hydrate formation ([3]; humidifying under 95% RH/25° C. for three days): no change in solid state form; thermodynamic stability of the crystalline form ([3]; under the current investigated process conditions): thermodynamically most stable crystalline form
4 | Cc1c(Nc2nccc3cc(CN4CC[C@@H](O)C4)cnc23)cccc1-c1cccc(-c2nc3cc(CN4CC[C@@H](C(=O)O)C4)cc(C#N)c3o2)c1C [Form V, (R)-1-((7-cyano-2-(3′-(3-(((R)-3-hydroxypyrrolidin-1-yl)methyl)-1,7-naphthyridin-8-ylamino)-2,2′-dimethylbiphenyl-3-yl)benzo[d]oxazol-5-yl)methyl)pyrrolidine-3-carboxylic acid] | above 160 °C |  |  |  | 
5 | Cc1c(Nc2nccc3cc(CN4CC[C@@H](O)C4)cnc23)cccc1-c1cccc(-c2nc3cc(CN4CC[C@@H](C(=O)O)C4)cc(C#N)c3o2)c1C [amorphous powder, (R)-1-((7-cyano-2-(3′-((3-(((R)-3-hydroxypyrrolidin-1-yl)methyl)-1,7-naphthyridin-8-yl)amino)-2,2′-dimethyl-[1,1′-biphenyl]-3-yl)benzo[d]oxazol-5-yl)methyl)pyrrolidine-3-carboxylic acid] | above 170 °C | hygroscopic | approximately 12% |  | 
6 | Cc1c(Nc2nccc3cc(CN4CC[C@@H](O)C4)cnc23)cccc1-c1cccc(-c2nc3cc(CN4CC[C@@H](C(=O)O)C4)cc(C#N)c3o2)c1C [Form IV, (R)-1-((7-cyano-2-(3′-(3-(((R)-3-hydroxypyrrolidin-1-yl)methyl)-1,7-naphthyridin-8-ylamino)-2,2′-dimethylbiphenyl-3-yl)benzo[d]oxazol-5-yl)methyl)pyrrolidine-3-carboxylic acid] | above 140 °C | hygroscopic | approximately 8.2% | No crystalline form change was observed | crystalline form after further drying ([3]; drying on the filter at ambient temperature for 3-6 days, residual THF approximately 0.1 wt %): remained unchanged
